From ChEMBL document CHEMBL1201862, “PubChem BioAssay data set” (2004)
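All cell lines were grown in 96-well plates and treated with compound for 48 hours. GI50: concentration for 50% inhibition of growth.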 Activity calls are given as the source filed them. Cut-off read from the data, not from the text of the source: active = GI50 up to about 1.1 µM and inactive = higher.

Columns and labels:
Test in all cases: NCI anticancer screen, dose series, 48 h
K562 = test system: K562
SK-MEL-28 = test system: SK-MEL-28
SF-539 = test system: SF-539
HCC 2998 = test system: HCC 2998
SF-295 = test system: SF-295
NCI-H23 = test system: NCI-H23
CAKI-1 = test system: CAKI-1
SNB-19 = test system: SNB-19
OVCAR-8 = test system: OVCAR-8
SK-MEL-2 = test system: SK-MEL-2
UACC-62 = test system: UACC-62
NCI/ADR-RES = test system: NCI/ADR-RES
SN12C = test system: SN12C
LOX IMVI = test system: LOX IMVI
NCI-H522 = test system: NCI-H522
SW-620 = test system: SW-620
CCRF-CEM = test system: CCRF-CEM
MOLT-4 = test system: MOLT-4
SNB-75 = test system: SNB-75
NCI-H226 = test system: NCI-H226

SMILES | GI50 (K562) | GI50 (SK-MEL-28) | GI50 (SF-539) | GI50 (HCC 2998) | GI50 (SF-295) | GI50 (NCI-H23) | GI50 (CAKI-1) | GI50 (SNB-19) | GI50 (OVCAR-8) | GI50 (SK-MEL-2) | GI50 (UACC-62) | GI50 (NCI/ADR-RES) | GI50 (SN12C) | GI50 (LOX IMVI) | GI50 (NCI-H522) | GI50 (SW-620) | GI50 (CCRF-CEM) | GI50 (MOLT-4) | GI50 (SNB-75) | GI50 (NCI-H226)
COC(=O)CC1(CNC(=O)OCc2ccccc2)OCCO1 | > 100 µM (inactive) | > 100 µM (inactive) | > 100 µM (inactive) | > 100 µM (inactive) | > 100 µM (inactive) | > 100 µM (inactive) | > 100 µM (inactive) | > 100 µM (inactive) | > 100 µM (inactive) | > 100 µM (inactive) | > 100 µM (inactive) | > 100 µM (inactive) | > 100 µM (inactive) | > 100 µM (inactive) | > 100 µM (inactive) | > 100 µM (inactive) | > 100 µM (inactive) | > 100 µM (inactive) | > 100 µM (inactive) | > 100 µM (inactive)
CCCCC(C)C1CCC2(C)C=CC(=O)C(C)=C2C1O (centres undefined) | > 100 µM (inactive) | > 100 µM (inactive) | > 100 µM (inactive) | > 100 µM (inactive) | > 100 µM (inactive) | > 100 µM (inactive) | > 100 µM (inactive) | > 100 µM (inactive) | > 100 µM (inactive) | > 100 µM (inactive) | > 100 µM (inactive) | > 100 µM (inactive) | > 100 µM (inactive) | > 100 µM (inactive) | > 100 µM (inactive) | > 100 µM (inactive) | > 100 µM (inactive) | > 100 µM (inactive) | > 100 µM (inactive) | > 100 µM (inactive)
CCN(CC)c1ccc2c(c1)Oc1ccc(N(C(C)=O)c3ccccc3)cc1C21OC(=O)c2ccccc21 (centres undefined) | 12.6 µM (inactive) | > 100 µM (inactive) | > 100 µM (inactive) | > 100 µM (inactive) | 41.8 µM (inactive) | > 68.4 µM (inactive) | > 100 µM (inactive) | > 100 µM (inactive) | > 75.5 µM (inactive) | > 100 µM (inactive) | > 91.8 µM (inactive) | > 61.8 µM (inactive) | > 100 µM (inactive) | > 100 µM (inactive) | 62.7 µM (inactive) | 47.1 µM (inactive) | 21.1 µM (inactive) | 16.7 µM (inactive) | > 59.7 µM (inactive) | > 100 µM (inactive)
Cc1ccc(-c2c(C#N)c(-c3ccc([N+](=O)[O-])cc3)c(C#N)c(=O)n2NS(=O)(=O)c2ccccc2)cc1 | 39.3 µM (inactive) | 36.3 µM (inactive) | 32.3 µM (inactive) | 25.5 µM (inactive) | 27.8 µM (inactive) |  | 97.3 µM (inactive) | 42.6 µM (inactive) | 31.6 µM (inactive) | 44 µM (inactive) | 20.9 µM (inactive) | 26.1 µM (inactive) | 96.2 µM (inactive) | 25.9 µM (inactive) | 28.6 µM (inactive) | 38 µM (inactive) | 19 µM (inactive) | 18.9 µM (inactive) | 28.4 µM (inactive) | 70.3 µM (inactive)
CN(C)CCCNc1ccc2nnn3c4ccc(O)cc4c(=O)c1c23 | 7.26 µM (inactive) | 6.52 µM (inactive) | 6.44 µM (inactive) | 1.89 µM (inactive) | 4.37 µM (inactive) | 3.56 µM (inactive) | 1.64 µM (inactive) | 6.61 µM (inactive) | 1.5 µM (inactive) | 12.7 µM (inactive) | 11 µM (inactive) | 4.56 µM (inactive) | 2.95 µM (inactive) | 1.16 µM (inactive) | 3.7 µM (inactive) | 1.16 µM (inactive) | 1.28 µM (inactive) | 0.2 µM (active) | 3.37 µM (inactive) | 2.51 µM (inactive)
[N-]=[N+]=CC(=O)OCC(N)C(=O)O (centres undefined) | 0.286 µM (active) | 3.35 µM (inactive) | 0.13 µM (active) | 0.362 µM (active) | 0.923 µM (active) | 1.04 µM (active) | 5.85 µM (inactive) | 2.88 µM (inactive) | 1.32 µM (inactive) | 3.28 µM (inactive) | 1.19 µM (inactive) | 2.95 µM (inactive) | 0.421 µM (active) | 0.205 µM (active) | 0.54 µM (active) | 0.437 µM (active) | 0.222 µM (active) | 0.216 µM (active) | 21.3 µM (inactive) | 625 µM (inactive)
COC(=O)c1ccc2c(c1)CCN2C(=O)c1cc2c(cc1Br)OCO2 | 0.19 µM (active) | 11 µM (inactive) | 0.148 µM (active) | 0.989 µM (active) | 0.565 µM (active) | 1.44 µM (inactive) | 4.7 µM (inactive) | 0.439 µM (active) | 2.11 µM (inactive) | 0.723 µM (active) | 0.439 µM (active) | 0.342 µM (active) | 1.81 µM (inactive) | 3.11 µM (inactive) | 0.119 µM (active) | 0.822 µM (active) | 0.404 µM (active) | 0.504 µM (active) | 0.484 µM (active) | 0.277 µM (active)
COc1cc(Nc2nc3ccc(C(F)(F)F)cc3nc2C(=O)O)cc(OC)c1OC | 17.9 µM (inactive) | 26.8 µM (inactive) | 31.4 µM (inactive) | 18.6 µM (inactive) | 27.1 µM (inactive) | 27.8 µM (inactive) | 24.8 µM (inactive) | 29.9 µM (inactive) | 27.7 µM (inactive) | 21.8 µM (inactive) | 18.6 µM (inactive) | 21.3 µM (inactive) | 14.4 µM (inactive) | 19.1 µM (inactive) | 21.4 µM (inactive) | 25.7 µM (inactive) | 41.6 µM (inactive) | 29.2 µM (inactive) | 46 µM (inactive) | 21.4 µM (inactive)
COc1cc(N/N=C/C#N)cc(OC)c1OC | 2.44 µM (inactive) | > 10 µM (inactive) | > 10 µM (inactive) | > 10 µM (inactive) | > 10 µM (inactive) | 4.34 µM (inactive) | 4.07 µM (inactive) | > 10 µM (inactive) | > 10 µM (inactive) | > 10 µM (inactive) | > 10 µM (inactive) | > 10 µM (inactive) | > 10 µM (inactive) | 1.54 µM (inactive) | 1.01 µM (active) | 8.28 µM (inactive) | 3.28 µM (inactive) | 2.92 µM (inactive) | 9.16 µM (inactive) | > 10 µM (inactive)
CC(=O)OCC1OC(n2cc(F)c(=O)[nH]c2=O)C(NC(=O)OCc2ccccc2)C(OC(C)=O)C1OC(C)=O (centres undefined) | > 100 µM (inactive) | > 100 µM (inactive) | > 100 µM (inactive) | > 100 µM (inactive) | > 100 µM (inactive) | > 100 µM (inactive) | > 100 µM (inactive) | > 100 µM (inactive) | > 100 µM (inactive) | > 100 µM (inactive) | > 100 µM (inactive) | > 100 µM (inactive) | > 100 µM (inactive) | > 100 µM (inactive) | > 95.3 µM (inactive) | > 100 µM (inactive) | > 100 µM (inactive) | > 100 µM (inactive) | > 100 µM (inactive) | > 100 µM (inactive)
CCCC(=O)Nc1cc(/C=C/C(=O)N2CC(CCl)c3c2cc(OCc2ccccc2)c2[nH]cc(C)c32)n(C)c1 (centres undefined) | 0.0373 µM (active) | 0.215 µM (active) | 0.0472 µM (active) | 0.0253 µM (active) | 0.0317 µM (active) | 0.0139 µM (active) | 0.0295 µM (active) | 0.337 µM (active) | 0.0221 µM (active) | 0.074 µM (active) | 0.027 µM (active) | 0.0238 µM (active) | 0.186 µM (active) | 0.0817 µM (active) | 0.00849 µM (active) | 0.0597 µM (active) | 0.0101 µM (active) | 0.00855 µM (active) | 0.0675 µM (active) | 0.107 µM (active)
N#Cc1cc2c(cc1C#N)/C(=N\c1cccc(N)n1)N/C2=N\c1cccc(N)n1 | 13.4 µM (inactive) | 18.8 µM (inactive) | 6.75 µM (inactive) | 20.5 µM (inactive) | 21.3 µM (inactive) | 16.1 µM (inactive) | 15.8 µM (inactive) | 70 µM (inactive) | 23.6 µM (inactive) | 21.6 µM (inactive) | 15.2 µM (inactive) | 19.2 µM (inactive) | 32.9 µM (inactive) | 18.8 µM (inactive) | 9.38 µM (inactive) | 11.4 µM (inactive) | 4.74 µM (inactive) | 3.78 µM (inactive) | 15.6 µM (inactive) | > 100 µM (inactive)
Nc1ncnc2c1ncn2[C@@H]1O[C@H](COP(=O)(O)O)[C@@H](O)[C@@H]1O | > 50 µM (inactive) | > 50 µM (inactive) | > 50 µM (inactive) | > 50 µM (inactive) | > 50 µM (inactive) | > 50 µM (inactive) | > 50 µM (inactive) | > 50 µM (inactive) | 12.9 µM (inactive) | > 50 µM (inactive) | > 50 µM (inactive) | > 24.5 µM (inactive) | > 50 µM (inactive) | > 50 µM (inactive) | > 50 µM (inactive) | > 50 µM (inactive) | > 50 µM (inactive) | > 38.8 µM (inactive) | > 50 µM (inactive) | > 50 µM (inactive)
Cc1c2ccnc(-c3ccccc3)c2cc2c1[nH]c1ccccc12 | 1.58 µM (inactive) | 4.29 µM (inactive) | 2.45 µM (inactive) | 3.07 µM (inactive) | 0.879 µM (active) | 1.01 µM (active) | 0.655 µM (active) | 3.66 µM (inactive) | 1.13 µM (inactive) | 2.62 µM (inactive) | 1.09 µM (active) | 0.492 µM (active) | 2.99 µM (inactive) | 1.05 µM (active) | 4.52 µM (inactive) | 2.48 µM (inactive) | 3.26 µM (inactive) | 2.75 µM (inactive) | 2.33 µM (inactive) | 2.64 µM (inactive)
